From patent US20070203159A1, “Purine compounds” (priority 2006, published 2007) come the findings set out here.

≈ marks a conversion by molar mass, not a printed value.

Tested on in one series: not given
Assay: not given
Details: not given
In the case of `COc1ccc(Cn2c(Cl)nc3c(-c4ccc(Cl)o4)ncnc32)cc1`, the melting point (commonly the temperature, or range, at which the solid turns liquid) fell in the range of 166 to 168 °C.

Consider `CCSc1nc(-c2ccco2)c2ncn(Cc3ccc(OC)cc3)c2n1`, for which the melting point fell in the range of 116 to 117 °C.

Turning to `CCCOc1nc(-c2ccco2)c2ncn(Cc3ccc(OC)cc3)c2n1`, the melting point was found to be 119 °C.

For the molecule `COc1ccc(Cn2cnc3c(-c4ccco4)nc(OC(C)C)nc32)cc1`, the melting point fell in the range of 145 to 146 °C.

Regarding `CCCCOc1nc(-c2ccco2)c2ncn(Cc3ccc(OC)cc3)c2n1`, the melting point amounted to 113 °C.

Take `COc1ccc(Cn2cnc3c(-c4ccco4)nc(OCc4ccccc4)nc32)cc1`: the melting point came to 122 °C.

`COc1ccc(Cn2cnc3c(-c4ccco4)nc(I)nc32)cc1`: the melting point is 145 to 148 °C.

`COc1ccc(Cn2cnc3c(-c4ccco4)nc(NC(C)=O)nc32)cc1` yielded a melting point of 167 to 168 °C.

For `COc1ccc(Cn2cnc3c(-c4ccco4)nc(N(C(C)=O)C(C)=O)nc32)cc1`, the melting point is 187 to 189 °C.

`CNc1nc(-c2ccco2)c2ncn(Cc3ccc(OC)cc3)c2n1` had a melting point of 144 to 145 °C.

With `COc1ccc(Cn2cnc3c(-c4ccco4)nc(N(C)C)nc32)cc1`, the melting point was in the range of 163 to 164 °C.

The molecule `CCOc1nc(-c2ccco2)c2ncn(Cc3ccc(OC)cc3)c2n1` had a melting point of 137 to 138 °C.

`CC#Cc1nc(-c2ccco2)c2ncn(Cc3ccc(OC)cc3)c2n1`: the melting point was in the range of 158 to 160 °C.

In turn, `Clc1ccc(Cn2cnc3c(-c4ccco4)ncnc32)cc1` [Example 27, 9-(4-Chlorophenylmethyl)-6-(2-furyl)-9H-purine] came in with a melting point of 156 to 159 °C.

With `Clc1ccc(Cn2cnc3c(-c4ccco4)ncnc32)cc1Cl` [Example 28, 9-(3,4-Dichlorophenylmethyl)-6-(2-furyl)-9H-purine], the melting point fell in the range of 183 to 185 °C.

`Fc1ccc(Cn2cnc3c(-c4ccco4)ncnc32)cc1` [Example 29, 9-(4-Fluorophenylmethyl)-6-(2-furyl)-9H-purine] came in with a melting point of 162 to 164 °C.

For `FC(F)(F)c1ccc(Cn2cnc3c(-c4ccco4)ncnc32)cc1` [Example 30, 6-(2-Furyl)-9-(4-trifluoromethylphenylmethyl)-9H-purine], the melting point fell in the range of 159 to 161 °C.

Take `Cc1ccc(Cn2cnc3c(-c4ccco4)ncnc32)cc1` [Example 31, 6-(2-Furyl)-9-(4-methylphenylmethyl)-9H-purine]: the melting point lay within 166 to 167 °C.

`CC(C)(C)c1ccc(Cn2cnc3c(-c4ccco4)ncnc32)cc1` [Example 32, 9-(4-tert-Butylphenylmethyl)-6-(2-furyl)-9H-purine] came in with a melting point of 185 to 187 °C.

Turning to `COc1cc(Cn2cnc3c(-c4ccco4)ncnc32)cc(OC)c1OC` [Example 36, 6-(2-Furyl)-9-(3,4,5-trimethoxyphenylmethyl)-9H-purine], the melting point fell in the range of 195 to 196 °C.

On to `FC(F)(F)Oc1ccc(Cn2cnc3c(-c4ccco4)ncnc32)cc1` [Example 37, 6-(2-Furyl)-9-(4-trifluoromethoxyphenylmethyl)-9H-purine], for which the melting point is 146 to 147 °C.

In turn, `FC(F)(F)Oc1cccc(Cn2cnc3c(-c4ccco4)ncnc32)c1` [Example 38, 6-(2-Furyl)-9-(3-trifluoromethoxyphenylmethyl)-9H-purine] returned a melting point of 133 to 135 °C.

For the molecule `Oc1ccc(Cn2cnc3c(-c4ccco4)ncnc32)cc1` [Example 41, 6-(2-Furyl)-9-(4-hydroxyphenylmethyl)-9H-purine], the melting point lay within 231 to 233 °C.

Consider `CC(=O)Nc1ccc(Cn2cnc3c(-c4ccco4)ncnc32)cc1` [Example 44, 9-(4-Acetamidophenylmethyl)-6-(2-furyl)-9H-purine], for which the melting point lay within 278 to 280 °C.

Regarding `Nc1ccc(Cn2cnc3c(-c4ccco4)ncnc32)cc1` [Example 45, 9-(4-Aminophenylmethyl)-6-(2-furyl)-9H-purine], the melting point lay within 195 to 197 °C.

As to `COc1ccc(Cn2cnc3c(-c4ccco4)nc(F)nc32)cc1` [Example 57, 2-Fluoro-6-(2-furyl)-9-(4-methoxyphenylmethyl)-9H-purine], the melting point was in the range of 210 to 215 °C.

As for `COc1ccc(Cn2cnc3c(-c4ccco4)nc(N)nc32)cc1` [Example 61, 2-Amino-6-(2-furyl)-9-(4-methoxyphenylmethyl)-9H-purine], the melting point was 235 to 237 °C (dec.).

In turn, `COc1ccc(CNc2nc(-c3ccco3)c3ncn(Cc4ccc(OC)cc4)c3n2)cc1` [Example 65, 6-(2-Furyl)-2-(4-methoxyphenylmethylamino)-9-(4-methoxyphenylmethyl)-9H-purine] displayed a melting point of 153 to 154 °C.

Molecule `COc1ccc(Cn2cnc3c(-c4ccco4)nc(S(C)(=O)=O)nc32)cc1` [Example 70, 6-(2-Furyl)-9-(4-methoxyphenylmethyl)-2-methylsulfonyl-9H-purine] gave a melting point of 184 to 185 °C.

`COc1ccc(Cn2cnc3c(-c4ccco4)nc([N+](=O)[O-])nc32)cc1` [Example 72, 6-(2-Furyl)-9-(4-methoxyphenylmethyl)-2-nitro-9H-purine] showed a melting point of 182 to 183 °C.

For the molecule `COc1ccc(Cn2cnc3c(-c4ccco4)nc(OC)nc32)cc1` [Example 74, 6-(2-Furyl)-2-methoxy-9-(4-methoxyphenylmethyl)-9H-purine], the melting point was in the range of 167 to 169 °C.

The molecule `COc1ccc(Cn2cnc3c(-c4ccco4)nc(C)nc32)cc1` [Example 76, 6-(2-Furyl)-9-(4-methoxyphenylmethyl)-2-methyl-9H-purine] came in with a melting point of 127 to 130 °C.

Turning to `CCc1nc(-c2ccco2)c2ncn(Cc3ccc(OC)cc3)c2n1` [Example 77, 2-Ethyl-6-(2-furyl)-9-(4-methoxyphenylmethyl)-9H-purine], the melting point was in the range of 119 to 120 °C.

As for `COc1ccc(Cn2cnc3c(-c4ccco4)nc(C(C)C)nc32)cc1` [Example 78, 6-(2-Furyl)-9-(4-methoxyphenylmethyl)-2-(1-methylethyl)-9H-purine], the melting point stood at 123 °C.

With `CCCCc1nc(-c2ccco2)c2ncn(Cc3ccc(OC)cc3)c2n1` [Example 79, 2-n-Butyl-6-(2-furyl)-9-(4-methoxyphenylmethyl)-9H-purine], the melting point was found to be 103 °C.

Regarding `COc1ccc(Cn2cnc3c(-c4ccco4)nc(C4CC4)nc32)cc1` [Example 80, 2-Cyclopropyl-6-(2-furyl)-9-(4-methoxyphenylmethyl)-9H-purine], the melting point lay within 115 to 116 °C.

The molecule `C=Cc1nc(-c2ccco2)c2ncn(Cc3ccc(OC)cc3)c2n1` [Example 82, 2-Ethenyl-6-(2-furyl)-9-(4-methoxyphenylmethyl)-9H-purine] returned a melting point of 94 to 95 °C.

`C=C(OCC)c1nc(-c2ccco2)c2ncn(Cc3ccc(OC)cc3)c2n1` [Example 83, 2-(1-Ethoxyvinyl)-6-(2-furyl)-9-(4-methoxyphenylmethyl)-9H-purine]: the melting point lay in the range of 144 to 145 °C.

For the molecule `COc1ccc(Cn2cnc3c(-c4ccco4)nc(-c4ccccc4)nc32)cc1` [Example 84, 6-(2-Furyl)-9-(4-methoxyphenylmethyl)-2-phenyl-9H-purine], the melting point was in the range of 140 to 142 °C.

As for `COc1ccc(Cn2cnc3c(-c4ccco4)nc(C(C)=O)nc32)cc1` [Example 86, 2-Acetyl-6-(2-furyl)-9-(4-methoxyphenylmethyl)-9H-purine], the melting point is 166 to 167 °C.

Take `COc1ccc(Cn2cnc3c(-c4ccco4)nc(C#N)nc32)cc1` [Example 87, 6-(2-Furyl)-9-(4-methoxyphenylmethyl)-9H-purine-2-carbonitrile]: the melting point was in the range of 205 to 207 °C.

`C#Cc1nc(-c2ccco2)c2ncn(Cc3ccc(OC)cc3)c2n1` [Example 89, 2-Ethynyl-6-(2-furyl)-9-(4-methoxyphenylmethyl)-9H-purine] gave a melting point of 155 °C.

In the case of `COc1ccc(Cn2cnc3c(-c4ccco4)nc(C(F)(F)F)nc32)cc1` [Example 94, 6-(2-Furyl)-9-(4-methoxyphenylmethyl)-2-trifluoromethyl-9H-purine], the melting point is 149 to 150 °C.

In turn, `COc1ccc(Cn2c(Cl)nc3c(-c4ccco4)ncnc32)cc1` [Example 99, 8-Chloro-6-(2-furyl)-9-(4-methoxyphenylmethyl)-9H-purine] returned a melting point of 156 to 157 °C.

With `COc1ccc(Cn2c(Br)nc3c(-c4ccco4)ncnc32)cc1` [Example 101, 8-Bromo-6-(2-furyl)-9-(4-methoxyphenylmethyl)-9H-purine], the melting point was 150 to 151 °C.

`COc1ccc(Cn2c(-c3ccco3)nc3c(-c4ccco4)ncnc32)cc1` [Example 103, 6,8-Di(2-furyl)-9-(4-methoxyphenylmethyl)-9H-purine] registered a melting point of 134 to 136 °C.

As for `COc1ccc(Cn2c(OC)nc3c(-c4ccco4)ncnc32)cc1` [Example 104, 6-(2-Furyl)-8-methoxy-9-(4-methoxyphenylmethyl)-9H-purine], the melting point lay within 143 to 144 °C.

Regarding `COc1ccc(Cn2c(O)nc3c(-c4ccco4)ncnc32)cc1` [Example 105, 6-(2-Furyl)-8-hydroxy-9-(4-methoxyphenylmethyl)-9H-purine], the melting point lay within 249 to 251 °C.

A further series relates to Mycobacterium tuberculosis H37Rv (ATCC 27294). The series can be described thus: Microplate Alamar Blue Assay (MABA): primary screening and MIC determination. Type of series: cell-based. The settings on record: Mycobacterium tuberculosis; retest at lower concentrations in the MABA; read-out: MIC. (In general: Resazurin is reduced to fluorescent resorufin, in cell work by metabolically active cells.)
For the molecule `Clc1ccc(Cn2cnc3c(-c4ccco4)ncnc32)cc1` [Example 27, 9-(4-Chlorophenylmethyl)-6-(2-furyl)-9H-purine], the MIC – broadly, the least concentration at which growth counts as inhibited – is 6.25 µg/mL (≈ 20.1 µM).

On to `Clc1ccc(Cn2cnc3c(-c4ccco4)ncnc32)cc1Cl` [Example 28, 9-(3,4-Dichlorophenylmethyl)-6-(2-furyl)-9H-purine], for which the minimum inhibitory concentration (MIC) came out at 6.25 µg/mL (≈ 18.1 µM).

Regarding `Fc1ccc(Cn2cnc3c(-c4ccco4)ncnc32)cc1` [Example 29, 9-(4-Fluorophenylmethyl)-6-(2-furyl)-9H-purine], the MIC is 6.25 µg/mL (≈ 21.2 µM).

As for `Cc1ccc(Cn2cnc3c(-c4ccco4)ncnc32)cc1` [Example 31, 6-(2-Furyl)-9-(4-methylphenylmethyl)-9H-purine], the MIC turned out to be 3.13 µg/mL (≈ 10.8 µM).

With `CC(C)(C)c1ccc(Cn2cnc3c(-c4ccco4)ncnc32)cc1` [Example 32, 9-(4-tert-Butylphenylmethyl)-6-(2-furyl)-9H-purine], the MIC turned out to be 12.5 µg/mL (≈ 37.6 µM).

In the case of `Clc1ccc(Cn2cnc3c(-c4ccco4)nc(Cl)nc32)cc1` [Example 46, 2-Chloro-9-(4-chlorophenylmethyl)-6-(2-furyl)-9H-purine], the minimum inhibitory concentration (MIC) amounted to 1.56 µg/mL (≈ 4.52 µM).

Still in this series, the particulars now being: retest at lower concentrations in the MABA.
Turning to “2-Chloro-6-(2-furyl)-9-(4-methyloxyphenylmethyl)-9H-purine [Example 50]”, the MIC worked out at 0.78 µg/mL.

“2-Cyclopentenyl-6-(2-furyl)-9-(4-methoxyphenylmethyl)-9H-purine [Example 81]” had an MIC of 6.25 µg/mL.
